For experiment [1], the system named is SUDHL-6 DLBCL xenograft tumors. The experiment is described as follows: SUDHL-6 (DLBCL) xenograft model. In kind it is in vivo, female SCID mice. The note with it: Compound 1 10 mg/kg oral, 5 days on 2 days off for 3 weeks, single agent. As for the experimental part: (§1) Female 6- to 8-weeks-old CB17 SCID mice were obtained from Charles River Laboratories. Mice were housed in a barrier facility in micro-isolator cages at 10 animals per cage. Mice were fed with Harlan-Teklad LM-485 Mouse/Rat Sterilizable Diet and autoclaved water ad libitum and maintained on a 12 hours light-dark cycle. Animals were acclimatized to the animal housing facility for a period of 7 days before the beginning of the experiment. All animal studies were performed under protocols approved by Institutional Animal Care and Use Committees.
Suspensions of Compound 1 were pared in aqueous 0.5% Methyl Cellulose, 0.25% Tween 80 and 50 mM Citrate pH 3. […]
Tumor cells were injected subcutaneously in the flank region above the right hind legs of female CB17 SCID mice. […] Tumor volumes were determined before the initiation of treatment and were considered as the starting volumes. Tumors were measured twice a week for the duration of the study. The long and short axes of each tumor were measured using a digital caliper in millimeters. The tumor volumes were calculated using the formula: width^2×length/2. […]
Xenograft data are expressed as mean±SEM. […]
Xenograft study was conducted with female SCID mice bearing SUDHL-6 DLBCL xenograft tumors. […] Tumors were measured twice a week using calipers and tumor volumes were calculated using the formula of W^2×L/2. […]

The subject of experiment [2] is WSU-DLCL2 DLBCL xenograft tumors. The experiment is described as follows: WSU-DLCL2 (DLBCL) xenograft model. The note with it: 5 days on 2 days off for 3 weeks, single agent. The class given is in vivo, female SCID mice. The method, then:
as §1
Suspensions of Compound 1 were pared in aqueous 0.5% Methyl Cellulose, 0.25% Tween 80 and 50 mM Citrate pH 3. The formulations were homogenized using a Teflon pestle and mortar (Potter-Elvehjem tissue grinder). For multiday studies, the compound was freshly formulated every day. Compound 1 and vehicle were administered by oral gavage. Rituximab was diluted in 0.9% saline and administered intraperitoneally.
Tumor cells were injected subcutaneously in the flank region above the right hind legs of female CB17 SCID mice. When the tumor volumes reach to approximately 200 mm^3, mice bearing tumors of 150-300 mm^3 were randomly assigned to receive oral doses of vehicle, Compound 1, rituximab or combination of Compound 1 (5 days on and 2 days off for 3 weeks) and rituximab (twice a week) for the duration of the study. Tumor volumes were determined before the initiation of treatment and were considered as the starting volumes. Tumors were measured twice a week for the duration of the study. The long and short axes of each tumor were measured using a digital caliper in millimeters. The tumor volumes were calculated using the formula: width^2×length/2. The tumor volumes were expressed in cubic millimeters (mm^3).
Xenograft data are expressed as mean±SEM. Statistical analyses were performed using GraphPad Prism. […]
Xenograft study was conducted with female SCID mice bearing WSU-DLCL2 DLBCL xenograft tumors. […] Tumors were measured twice a week using calipers and tumor volumes were calculated using the formula of W^2×L/2. […]

The structures appear in SMILES notation.

Take `O=C1CC[C@H](N2C(=O)c3cccc(NCc4ccc(CN5CC(N6CCOCC6)C5)cc4F)c3C2=O)C(=O)N1` [Compound 1, (S)-2-(2,6-dioxopiperidin-3-yl)-4-((2-fluoro-4-((3-morpholinoazetidin-1-yl)methyl)benzyl)amino)isoindoline-1,3-dione]: the tumor volume reduction is 68% in experiment [1], 74% in experiment [2] (Compound 1 1 mg/kg oral) and 86% in experiment [2] (Compound 1 3 mg/kg oral).

The values are drawn from patent publication US11390617B2, “Methods of treating non-Hodgkin lymphoma using 2-(2,6-dioxopiperidin-3-yl)-4-((2-fluoro-4-((3-morpholinoazetidin-1-yl)methyl)benzyl)amino)isoindoline-1,3-dione” (Celgene Corporation, priority 2019, dated 2022).
